Experimental data published in US11147812B2, “Tyrosine analogues derivatives as Rho-kinase inhibitors” (Chiesi Farmaceutici S.p.A., priority 2017, dated 2021).

What was measured:
Rho kinase 1 (ROCK1) = Rho kinase 1 (ROCK1) (Homo sapiens, UniProt Q13464); experiment: In vitro Rho kinase inhibitory activity assay (ADP-Glo), ROCK1; assay type: biochemical; conditions: 10 μM ATP, 25° C., Ki by Cheng-Prusoff
Experimental: (§1) The effectiveness of compounds of the present invention to inhibit Rho kinase activity can be determined in a 10 μl assay containing 40 mM Tris pH7.5, 20 mM MgCl2 0.1 mg/ml BSA, 50 μM DTT and 2.5 μM peptide substrate (Myelin Basic Protein) using an ADP-Glo kit (Promega). Compounds were dissolved in DMSO such that the final concentration of DMSO was 1% in the assay. All reactions/incubations are performed at 25° C. Compound (2 ul) and either Rho kinase 1 or 2 (4 μl) were mixed and incubated for 30 mins. Reactions were initiated by addition of ATP (4 μl) such that the final concentration of ATP in the assay was 10 μM. After a 1 hour incubation 10 μl of ADP-Glo Reagent was added and after a further 45 minute incubation 20 ul of Kinase Detection Buffer was added and the mixture incubated for a further 30 minutes. The luminescent signal was measured on a luminometer. […] Compounds were tested in dose-response format and the inhibition of kinase activity was calculated at each concentration of compound. To determine the IC50 (concentration of compound required to inhibit 50% of the enzyme activity) data were fit to a plot of % inhibition vs Log10 compound concentration using a sigmoidal fit with a variable slope and fixing the maximum to 100% and the minimum to 0%. To determine the Ki values the Cheng-Prusoff equation was utilized (Ki=IC50/(1+[S]/Km)

Rho kinase 2 (ROCK2) = Rho kinase 2 (ROCK2) (Homo sapiens, UniProt O75116); experiment: In vitro Rho kinase inhibitory activity assay (ADP-Glo), ROCK2; assay type: biochemical; conditions: 10 μM ATP, 25° C., Ki by Cheng-Prusoff
Chain of Rho kinase 2 (ROCK2) (O75116 whole entry): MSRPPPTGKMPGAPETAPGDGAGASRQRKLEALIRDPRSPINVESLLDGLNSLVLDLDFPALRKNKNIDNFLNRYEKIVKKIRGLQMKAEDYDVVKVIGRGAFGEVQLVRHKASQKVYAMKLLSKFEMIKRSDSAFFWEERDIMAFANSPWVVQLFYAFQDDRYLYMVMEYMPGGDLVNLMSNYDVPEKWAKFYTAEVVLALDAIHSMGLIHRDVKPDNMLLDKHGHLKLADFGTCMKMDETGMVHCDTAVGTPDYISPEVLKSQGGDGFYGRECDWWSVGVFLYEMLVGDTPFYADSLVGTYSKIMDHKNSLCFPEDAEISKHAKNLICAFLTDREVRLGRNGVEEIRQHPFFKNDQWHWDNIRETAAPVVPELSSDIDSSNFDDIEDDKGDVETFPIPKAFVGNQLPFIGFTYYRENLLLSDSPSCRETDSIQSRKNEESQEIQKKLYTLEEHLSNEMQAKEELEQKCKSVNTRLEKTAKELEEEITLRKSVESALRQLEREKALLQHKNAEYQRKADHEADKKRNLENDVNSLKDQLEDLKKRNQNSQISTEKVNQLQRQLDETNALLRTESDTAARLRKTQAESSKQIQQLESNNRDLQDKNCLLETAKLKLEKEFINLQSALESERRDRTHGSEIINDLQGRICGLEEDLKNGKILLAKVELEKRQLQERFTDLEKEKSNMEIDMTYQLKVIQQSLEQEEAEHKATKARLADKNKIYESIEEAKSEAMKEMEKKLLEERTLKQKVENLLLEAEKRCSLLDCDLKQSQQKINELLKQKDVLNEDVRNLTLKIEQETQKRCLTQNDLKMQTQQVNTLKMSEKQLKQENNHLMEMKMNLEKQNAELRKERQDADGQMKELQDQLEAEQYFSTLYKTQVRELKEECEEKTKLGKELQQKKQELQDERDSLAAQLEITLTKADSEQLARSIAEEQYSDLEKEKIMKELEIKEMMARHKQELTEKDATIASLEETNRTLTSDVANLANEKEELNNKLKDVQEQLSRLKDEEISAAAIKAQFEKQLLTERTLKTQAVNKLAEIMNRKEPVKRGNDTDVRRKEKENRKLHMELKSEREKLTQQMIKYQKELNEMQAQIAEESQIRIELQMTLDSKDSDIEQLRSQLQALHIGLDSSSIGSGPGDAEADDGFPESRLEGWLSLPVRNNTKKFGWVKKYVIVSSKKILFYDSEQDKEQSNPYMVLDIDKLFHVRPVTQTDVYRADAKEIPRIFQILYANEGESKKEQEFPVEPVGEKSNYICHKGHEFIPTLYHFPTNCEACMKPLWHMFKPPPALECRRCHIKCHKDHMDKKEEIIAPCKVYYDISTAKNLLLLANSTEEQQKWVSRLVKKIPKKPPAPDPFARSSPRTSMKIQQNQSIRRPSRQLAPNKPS
Experimental: as §1

Chain of Rho kinase 1 (ROCK1) (Q13464 whole entry): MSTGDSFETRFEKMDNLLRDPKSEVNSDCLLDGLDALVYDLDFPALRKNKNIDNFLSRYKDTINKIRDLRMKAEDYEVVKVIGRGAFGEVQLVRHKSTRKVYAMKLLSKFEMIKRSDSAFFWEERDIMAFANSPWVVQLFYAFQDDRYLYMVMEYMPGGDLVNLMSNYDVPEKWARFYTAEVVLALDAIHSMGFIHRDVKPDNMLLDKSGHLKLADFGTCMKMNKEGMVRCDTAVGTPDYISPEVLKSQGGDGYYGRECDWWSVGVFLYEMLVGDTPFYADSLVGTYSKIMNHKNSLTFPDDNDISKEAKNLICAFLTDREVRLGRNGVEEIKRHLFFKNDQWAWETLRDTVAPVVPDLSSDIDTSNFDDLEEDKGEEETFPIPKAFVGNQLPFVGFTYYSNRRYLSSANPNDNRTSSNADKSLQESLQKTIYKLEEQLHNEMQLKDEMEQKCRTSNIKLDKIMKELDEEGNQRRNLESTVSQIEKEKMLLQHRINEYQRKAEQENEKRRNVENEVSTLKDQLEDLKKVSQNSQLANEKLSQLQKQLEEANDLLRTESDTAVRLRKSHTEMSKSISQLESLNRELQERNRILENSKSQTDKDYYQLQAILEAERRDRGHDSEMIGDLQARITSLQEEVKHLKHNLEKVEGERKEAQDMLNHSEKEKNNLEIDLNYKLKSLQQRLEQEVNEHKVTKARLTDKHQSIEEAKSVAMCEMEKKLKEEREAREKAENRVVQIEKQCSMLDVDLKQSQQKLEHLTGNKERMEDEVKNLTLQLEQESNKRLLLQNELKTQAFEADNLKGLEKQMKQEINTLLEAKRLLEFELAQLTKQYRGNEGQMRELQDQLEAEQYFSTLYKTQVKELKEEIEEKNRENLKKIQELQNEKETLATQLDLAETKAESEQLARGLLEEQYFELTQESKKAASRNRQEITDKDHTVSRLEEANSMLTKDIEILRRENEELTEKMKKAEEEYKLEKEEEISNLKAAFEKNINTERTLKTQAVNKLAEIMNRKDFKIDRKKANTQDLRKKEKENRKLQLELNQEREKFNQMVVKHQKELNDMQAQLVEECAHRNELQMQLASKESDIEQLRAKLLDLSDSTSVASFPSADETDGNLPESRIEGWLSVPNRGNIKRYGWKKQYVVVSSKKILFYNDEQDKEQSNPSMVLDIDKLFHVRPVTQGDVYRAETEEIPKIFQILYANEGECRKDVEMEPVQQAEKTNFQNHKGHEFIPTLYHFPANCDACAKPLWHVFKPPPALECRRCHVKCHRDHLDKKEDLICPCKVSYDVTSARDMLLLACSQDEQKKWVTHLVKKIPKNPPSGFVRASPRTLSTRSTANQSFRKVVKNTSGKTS

SMILES | Ki (Rho kinase 1 (ROCK1)) [nM] | Ki (Rho kinase 2 (ROCK2)) [nM]
COCCCN1CNCC(Cc2ccc(Oc3ccnc4[nH]cc(C)c34)c(F)c2)C1=O (stereo not drawn) [Example 42, 5-(3-fluoro-4-((3-methyl-1H-pyrrolo[2,3-b]pyridin-4-yl)oxy)benzyl)-3-(3-methoxypropyl)tetrahydropyrimidin-4(1H)-one] | > 30 | 3 to 30
NC(C(=O)NC1CCCCC1)c1ccc(Oc2ccnc3[nH]ccc23)cc1 (stereo not drawn) [Example 8, 2-(4-((1H-pyrrolo[2,3-b]pyridin-4-yl)oxy)phenyl)-2-amino-N-cyclohexylacetamide] | > 30 | > 30
CN1CCC(N2CNCC(Cc3ccc(Oc4ccnc5[nH]cc(C#N)c45)cc3)C2=O)CC1 (stereo not drawn) [Example 47, 4-(4-((1-(1-methylpiperidin-4-yl)-6-oxohexahydropyrimidin-5-yl)methyl)phenoxy)-1H-pyrrolo[2,3-b]pyridine-3-carbonitrile] | 3 to 30 | 3 to 30

Second part, the compound after the results:

Ki (Rho kinase 1 (ROCK1)) [nM] | Ki (Rho kinase 2 (ROCK2)) [nM] | SMILES
< 3 | < 3 | Cc1c[nH]c2nccc(Oc3ccc(CC(CN)C(=O)N4CCN(Cc5ccccc5)CC4)cc3F)c12 (stereo not drawn) [Example 29, 3-amino-1-(4-benzylpiperazin-1-yl)-2-(3-fluoro-4-((3-methyl-1H-pyrrolo[2,3-b]pyridin-4-yl)oxy)benzyl)propan-1-one]
> 30 | > 30 | Cc1c[nH]c2nccc(Oc3ccc(CC4CNCN(CCc5ccncc5)C4=O)cc3F)c12 (stereo not drawn) [Example 43, 5-(3-fluoro-4-((3-methyl-1H-pyrrolo[2,3-b]pyridin-4-yl)oxy)benzyl)-3-(2-(pyridin-4-yl)ethyl)tetrahydropyrimidin-4(1H)-one]
3 to 30 | 3 to 30 | Cc1c[nH]c2nccc(Oc3ccc([C@H]4CNC[C@@H]4C(=O)NCc4ccccc4)cc3)c12 (single isomer, unassigned) [Example 17B]
